# “Also recorded” adds a separate entry of the source. Where a name gives a salt, the structure may show the parent alone.
# Legend:
# [1] = system: Influenza A Virus, subtype H1N1; assay type: cell-based
# [2] = system: Human rhinovirus type 16 (HRV16); assay type: cell-based
# [3] = system: human mammalian cells; details: cited from earlier work
Structure (SMILES),H1N1 viral replication by qPCR [1],HRV16 viral replication by qPCR [2],"concentration physiologically relevant, efficacious and non-cytotoxic [3] [nM]"
"COC(=O)/C=C/C(=O)OC [DMF, dimethyl fumarate]",inhibit H1N1 replication; also recorded: inhibit the replication,minimally inhibit HRV16 replication; also recorded: little antiviral activity,
"COC1=C(OC)C(=O)C(CCCCCCCCCC[P+](c2ccccc2)(c2ccccc2)c2ccccc2)=C(C)C1=O [Mito-MES, 10-(4,5-dimethoxy-2-methyl-3,6-dioxo-1,4-cyclohexadienyl) decyl triphenylphosphonium]",,,< 2000
